Experimental data published in ChEMBL document CHEMBL6153075, “Design, synthesis, and antitumor evaluation of triazolopyridine derivatives as novel inhibitors for BRD4” (Eur J Med Chem, 2025).
pIC50: −log10 of the molar value.

Legend:
MV4-11 [1] = experiment: Antiproliferative activity against human MV4-11 cells
HL-60 = experiment: Antiproliferative activity against human HL-60 cells; assay type: functional, cell-based
HCT-116 = experiment: Antiproliferative activity against human HCT-116 cells; assay type: functional, cell-based
MV4-11 [2] = experiment: Induction of apoptosis in human MV4-11 cells incubated for 72 hrs by Annexin V-FITC/PI staining based flow cytometry; assay type: functional, cell-based; details: dose 0.25-10 µM
[3] = Metabolic stability in human liver microsomes assessed as half life preincubated for 5 mins followed by NADPH addition measured for 5 to 90 mins by LC-MS/MS analysis; assay type: ADME, Microsome; details: time 10-95 min
[4] = Metabolic stability in human liver microsomes assessed as clearance preincubated for 5 mins followed by NADPH addition measured for 5 to 90 mins by LC-MS/MS analysis; assay type: ADME, Microsome; details: time 10-95 min, read-out: CLH
MV4-11 [5] = experiment: Induction of apoptosis in human MV4-11 cells at 0.25 to 10 uM incubated for 72 hrs by Annexin V-FITC/PI staining based flow cytometry (reference value: 43.2 %); assay type: functional; details: dose 0.25-10 µM
[6] = Blood concentration elimination rate constant for the terminal phase in ICR mouse at 1 mg/kg, iv measured for 5 to 480 mins by LC-MS/MS analysis; assay type: ADME, organism-based; details: time 5-480 min, read-out: LambdaZ (converted)
[7] = Half life in ICR mouse at 1 mg/kg, iv measured for 5 to 480 mins by LC-MS/MS analysis; assay type: ADME, organism-based; details: in vivo, time 5-480 min
[8] = Tmax in ICR mouse at 1 mg/kg, iv measured for 5 to 480 mins by LC-MS/MS analysis; assay type: ADME, organism-based; details: in vivo, time 5-480 min
[9] = Cmax in ICR mouse at 1 mg/kg, iv measured for 5 to 480 mins by LC-MS/MS analysis; assay type: ADME, organism-based; details: in vivo, time 5-480 min
[10] = AUC (0 to t) in ICR mouse at 1 mg/kg, iv measured for 5 to 480 mins by LC-MS/MS analysis; assay type: ADME, organism-based; details: in vivo, time 5-480 min
[11] = AUC (0 to infinity) in ICR mouse at 1 mg/kg, iv measured for 5 to 480 mins by LC-MS/MS analysis; assay type: ADME, organism-based; details: in vivo, time 5-480 min
[12] = MRT in ICR mouse at 1 mg/kg, iv measured for 5 to 480 mins by LC-MS/MS analysis; assay type: ADME, organism-based; details: in vivo, time 5-480 min
[13] = Clearance in ICR mouse at 1 mg/kg, iv measured for 5 to 480 mins by LC-MS/MS analysis; assay type: ADME, organism-based; details: in vivo, time 5-480 min
[14] = Volume of distribution at steady state in ICR mouse at 1 mg/kg, iv measured for 5 to 480 mins by LC-MS/MS analysis; assay type: ADME, organism-based; details: in vivo, time 5-480 min
[15] = Blood concentration elimination rate constant for the terminal phase in ICR mouse at 10 mg/kg, po measured for 5 to 480 mins by LC-MS/MS analysis; assay type: ADME, organism-based; details: time 5-480 min, read-out: LambdaZ (converted)
[16] = Half life in ICR mouse at 10 mg/kg, po measured for 5 to 480 mins by LC-MS/MS analysis; assay type: ADME, organism-based; details: in vivo, time 5-480 min
[17] = Tmax in ICR mouse at 10 mg/kg, po measured for 5 to 480 mins by LC-MS/MS analysis; assay type: ADME, organism-based; details: in vivo, time 5-480 min
[18] = Cmax in ICR mouse at 10 mg/kg, po measured for 5 to 480 mins by LC-MS/MS analysis; assay type: ADME, organism-based; details: in vivo, time 5-480 min
[19] = AUC (0 to t) in ICR mouse at 10 mg/kg, po measured for 5 to 480 mins by LC-MS/MS analysis; assay type: ADME, organism-based; details: in vivo, time 5-480 min
[20] = AUC (0 to infinity) in ICR mouse at 10 mg/kg, po measured for 5 to 480 mins by LC-MS/MS analysis; assay type: ADME, organism-based; details: in vivo, time 5-480 min
[21] = MRT in ICR mouse at 10 mg/kg, po measured for 5 to 480 mins by LC-MS/MS analysis; assay type: ADME, organism-based; details: in vivo, time 5-480 min
[22] = Clearance in ICR mouse at 10 mg/kg, po measured for 5 to 480 mins by LC-MS/MS analysis; assay type: ADME, organism-based; details: in vivo, time 5-480 min
[23] = Oral bioavailability in ICR mouse at 10 mg/kg measured for 5 to 480 mins by LC-MS/MS analysis; assay type: ADME, organism-based; details: in vivo, time 5-480 min
[24] = Drug uptake in ICR mouse plasma at 1 mg/kg, iv measured for 5 to 480 mins by LC-MS/MS analysis; assay type: ADME, organism-based; details: in vivo, time 5-480 min
[25] = Drug uptake in ICR mouse plasma at 10 mg/kg, po measured for 5 to 480 mins by LC-MS/MS analysis; assay type: ADME, organism-based; details: in vivo, time 5-480 min

`Cc1sc2c(c1C)C(c1ccc(Cl)cc1)=N[C@@H](CC(=O)OC(C)(C)C)c1nnc(C)n1-2` gave a pIC50 (MV4-11 [1]) of 7.52, a pIC50 (HL-60) of 5.50 and a pIC50 (HCT-116) of 5.57. For the same molecule, the Activity (MV4-11 [2]) was “Dose-dependent-effect”.

`Cc1nnc2ccc(-c3nc4cnc(-c5cnn(C)c5)cn4c3Nc3ccc(F)cc3)cn12` showed a pIC50 (MV4-11 [1]) of 5.31 and a pIC50 (HL-60) of 5.08.

Molecule `COc1ccc(Nc2c(-c3ccc4nnc(C)n4c3)nc3cnc(N4CCOCC4)cn23)cc1` has a pIC50 (MV4-11 [1]) of 6.25 and a pIC50 (HCT-116) of 5.35.

Molecule `Cc1nnc2ccc(-c3nc4cnc(N5CCOCC5)cn4c3Nc3ccc(C(F)(F)F)cc3)cn12` has a pIC50 (MV4-11 [1]) of 6.54, a half-life [3] of 154 min and a microsomal CLint [4] of 4.52 µL/min/mg.

With `CCc1nnc2ccc(-c3nc4cnc(-c5cnn(C)c5)cn4c3Nc3ccc(F)cc3Br)cn12` the pIC50 (MV4-11 [1]) was 7.70, the Activity (MV4-11 [2]) was “Dose-dependent-effect; Activity Was Better Than (+)-Jq1” and the Activity (MV4-11 [5]) was 83.2%. It also gave a k el [6] of 0.000181 s⁻¹, a half-life [7] of 63.6 min and a Tmax [8] of 4.8 min. The Cmax [9] was 4410 ng/mL, the AUC(0-t) [10] was 4640 ng·h/mL and the AUC(0-inf) [11] was 4660 ng·h/mL. For the same molecule, the MRT [12] was 1.32 h, the CL [13] was 2 10^-4(mg/kg)/(ng/ml)/hr and the Vdss [14] was 3 10^-4(mg/kg)/(ng/ml). It also gave a k el [15] of 9.72e-05 s⁻¹, a half-life [16] of 136 min and a Tmax [17] of 30 min. The Cmax [18] was 5480 ng/mL, the AUC(0-t) [19] was 18300 ng·h/mL and the AUC(0-inf) [20] was 20900 ng·h/mL. For the same molecule, the MRT [21] was 3.9 h, the CL [22] was 0.001 (mg/kg)/(ng/ml)/hr and the bioavailability [23] was 44.8%. The half-life [3] was 2310 min, the microsomal CLint [4] was 0.3 µL/min/mg and the Drug uptake [24] was “Active”. The Drug uptake [25] was “Active”.

Work on `Cc1nnc2ccc(-c3nc4cnc(N5CCOCC5)cn4c3Nc3cccc(F)c3)cn12` yielded a pIC50 (MV4-11 [1]) of 6.06.

`CCc1nnc2ccc(-c3nc4cnc(N5CCN(C)CC5)cn4c3Nc3ccc(F)c(Cl)c3)cn12` gave a pIC50 (MV4-11 [1]) of 6.13.
